Data on 19 compounds can be found in patent publication US10316021B2, “Heteroarylphenoxy benzamide kappa opioid ligands” (Pfizer Inc., priority 2016, dated 2019).

Broadly, the Ki is the dissociation constant of the complex between target and ligand, obtained from inhibition or displacement.

SMILES strings stand for the structures. Where two headings read alike, the source gives them in different places.

Assay [1] addresses T1, human kappa opioid receptor (hKOR) (Homo sapiens, UniProt P41145).
T1 construct: expressed in transfected cells; host or cells: CHO cells
The experiment in a line: Kappa radioligand binding assay ([3H]diprenorphine, CHO cell membranes). The protocol:
(§1) Kappa and Mu Radioligand Binding Assay:
(§2) Binding assays on membranes from CHO cells expressing human kappa or mu opioid receptors were performed according to standard procedures. Frozen cell paste was homogenized in 50 mM Tris HCl buffer (pH 7.4 @ 4 degrees C.) containing 2.0 mM MgCl2 using a Polytron and spun in a centrifuge at 40,000 g for ten minutes. The final pellet was resuspended in assay buffer (50 mM Tris HCl buffer, pH 7.4, containing 1 mM EDTA, 5 mM MgCl2). Incubations were initiated by the addition of membranes to 96-well plates containing test drugs and [^3H]diprenorphine (0.6 nM final concentration for kappa opioid receptor and 0.5 nM final concentration for mu) in a final volume of 250 μl. Non-specific binding was determined by radioligand binding in the presence of a saturating concentration of naltrexone (10 μM). After a one hour incubation period at room temperature, assay samples were rapidly filtered through PEI coated, GF/B fired Unifilter plates (PerkinElmer) and rinsed with ice-cold 50 mM Tris buffer (pH 7.4). Membrane bound [^3H]diprenorphine levels were determined by liquid scintillation counting of the filterplates in Ecolume scintillation fluid. The IC50 value (concentration at which 50% inhibition of specific binding occurs) was calculated using a logistic 4 parameter fit model of the concentration-response data. Ki values were calculated according to the Cheng Prusoff equation, Ki=IC50/(1+(L/Kd)), where L is the concentration of the radioligand used in the experiment and the Kd value is the dissociation constant for the radioligand (determined previously by saturation analysis).

Assay [2] has as its target T2, human mu opioid receptor (hMOR) (Homo sapiens, UniProt P35372).
T2 construct: expressed in transfected cells; host or cells: CHO cells
The experiment in a line: Mu radioligand binding assay ([3H]diprenorphine, CHO cell membranes). How it is done:
as §1
as §2, with “The IC50 value (concentration at which 50% inhibition of specific binding occurs) was calculated using a logistic 4 parameter fit model of the concentration-response data.” left out

[3] abbreviates: Table 19, geometric mean of 2-6 determinations unless otherwise indicated (Example 3: >=7), read-out: hKOR binding assay Ki.
Setting [4] is: radioligand binding, [3H]diprenorphine, read-out: hKOR Ki.
Setting [5] is: Table 19, geometric mean of 2-6 determinations unless otherwise indicated (Example 3: >=7), read-out: hMOR binding assay Ki.
Setting [6] is: radioligand binding, [3H]diprenorphine, read-out: hMOR Ki.

T1 sequence (P41145 whole entry): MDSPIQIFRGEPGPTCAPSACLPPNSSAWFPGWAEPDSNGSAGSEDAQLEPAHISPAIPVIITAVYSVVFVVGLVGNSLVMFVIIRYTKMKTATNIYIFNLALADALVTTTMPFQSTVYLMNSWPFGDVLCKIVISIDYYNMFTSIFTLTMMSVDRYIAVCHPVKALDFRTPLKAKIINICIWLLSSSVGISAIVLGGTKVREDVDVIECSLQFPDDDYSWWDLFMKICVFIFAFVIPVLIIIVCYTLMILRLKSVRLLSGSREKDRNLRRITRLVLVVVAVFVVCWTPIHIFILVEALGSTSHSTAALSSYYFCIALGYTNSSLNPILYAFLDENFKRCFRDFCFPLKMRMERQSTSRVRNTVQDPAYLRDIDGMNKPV
T2 sequence (P35372 whole entry): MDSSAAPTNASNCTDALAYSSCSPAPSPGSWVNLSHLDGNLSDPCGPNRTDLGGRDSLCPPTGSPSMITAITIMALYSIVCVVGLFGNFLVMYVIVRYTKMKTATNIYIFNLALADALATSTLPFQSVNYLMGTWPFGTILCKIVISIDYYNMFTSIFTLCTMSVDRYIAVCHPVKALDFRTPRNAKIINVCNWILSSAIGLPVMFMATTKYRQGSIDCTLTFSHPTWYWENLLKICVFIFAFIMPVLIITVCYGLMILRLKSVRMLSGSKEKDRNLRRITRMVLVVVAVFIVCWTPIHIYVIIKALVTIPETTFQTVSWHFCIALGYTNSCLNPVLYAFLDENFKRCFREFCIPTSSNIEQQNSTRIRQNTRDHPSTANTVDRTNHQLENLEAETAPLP

For the compound `Cc1nsc(C2CCCN2Cc2ccc(Oc3ccc(C(N)=O)cc3)cc2)n1` (single isomer, unassigned) [Example 41, 4-(4-{[2-(3-methyl-1,2,4-thiadiazol-5-yl)pyrrolidin-1-yl]methyl}phenoxy)benzamide], the Ki in assay [1] (setting [3]) is 85.8 nM; in assay [1] (setting [4]) it was above 100 nM; in assay [2] (setting [5]) it was 2730 nM; in assay [2] (Table 20, radioligand binding, read-out: hMOR binding assay Ki) it was 2730 nM. For the same compound, the “Selectivity hMOR/hKOR” value in assay [1] (selectivity ratio calculated by dividing the hMOR Ki by the hKOR Ki) was 32.

As to `COc1nn(C)cc1C1COCCN1Cc1ccc(Oc2ccc(C(N)=O)cc2F)cc1` (single isomer, unassigned) [enantiomer of Example 20, 3-fluoro-4-(4-{[3-(3-methoxy-1-methyl-1H-pyrazol-4-yl)morpholin-4-yl]methyl}phenoxy)benzamide], the Ki was 145 nM in assay [1] (setting [4]) and above 564 nM in assay [2] (setting [6]).

`COc1nn(C)cc1C1CCCCN1Cc1ccc(Oc2ccc(C(N)=O)cc2)cc1` (single isomer, unassigned) [enantiomer of Example 21, 4-(4-{[2-(3-methoxy-1-methyl-1H-pyrazol-4-yl)piperidin-1-yl]methyl}phenoxy)benzamide]: the Ki turned out to be 15.5 nM in assay [1] (setting [4]) and 135 nM in assay [2] (setting [6]).

As to `COc1nn(C)cc1C1COCCN1Cc1ccc(Oc2ccc(C(N)=O)cc2)c(F)c1` (single isomer, unassigned) [enantiomer of Example 22, 4-(2-fluoro-4-{[3-(3-methoxy-1-methyl-1H-pyrazol-4-yl)morpholin-4-yl]methyl}phenoxy)benzamide], the results for the Ki in assay [1] (setting [4]) and in assay [2] (setting [6]) were 263 nM and above 564 nM, respectively.

Turning to `COc1nn(C)cc1C1COCCN1Cc1ccc(Oc2ccc(C(N)=O)cc2)cc1` (single isomer, unassigned) [enantiomer of Example 23, 4-(4-{[3-(3-methoxy-1-methyl-1H-pyrazol-4-yl)morpholin-4-yl]methyl}phenoxy)benzamide], the Ki in assay [1] (setting [4]) is 223 nM; in assay [2] (setting [6]), above 564 nM.

Regarding `COc1nn(C)cc1C1CCCN1Cc1ccc(Oc2ccc(C(N)=O)cc2)c(F)c1` (single isomer, unassigned) [enantiomer of Example 32, 4-(2-fluoro-4-{[2-(3-methoxy-1-methyl-1H-pyrazol-4-yl)pyrrolidin-1-yl]methyl}phenoxy)benzamide], the Ki came out at 0.629 nM in assay [1] (setting [4]) and 13.7 nM in assay [2] (setting [6]).

For `COc1nn(C)cc1C1CCCN1Cc1ccc(Oc2ccc(C(N)=O)c(O)c2)cc1` (single isomer, unassigned) [enantiomer of Example 33, 2-hydroxy-4-(4-{[2-(3-methoxy-1-methyl-1H-pyrazol-4-yl)pyrrolidin-1-yl]methyl}phenoxy)benzamide], the Ki in assay [1] (setting [4]) stood at 28.7 nM; in assay [2] (setting [6]), 308 nM.

Turning to `Cc1c(C2CCCN2Cc2ccc(Oc3ccc(C(N)=O)cc3F)cc2)cnn1C` (single isomer, unassigned) [enantiomer of Example 35, 4-(4-{[2-(1,5-dimethyl-1H-pyrazol-4-yl)pyrrolidin-1-yl]methyl}phenoxy)-3-fluorobenzamide], the Ki in assay [1] (setting [4]) stood at 92.8 nM; in assay [2] (setting [6]) it was 245 nM.

Turning to `Cc1nn(C)nc1C1CCCN1Cc1ccc(Oc2ccc(C(N)=O)cc2)cc1` (single isomer, unassigned) [enantiomer of Example 38, 4-(4-{[2-(2,5-dimethyl-2H-1,2,3-triazol-4-yl)pyrrolidin-1-yl]methyl}phenoxy)benzamide], the Ki in assay [1] (setting [4]) is above 119 nM; in assay [2] (setting [6]), 252 nM.

`Cc1nn(C)nc1C1CCCN1Cc1ccc(Oc2ccc(C(N)=O)cc2)c(F)c1` (single isomer, unassigned) [enantiomer of Example 39, 4-(4-{[2-(2,5-dimethyl-2H-1,2,3-triazol-4-yl)pyrrolidin-1-yl]methyl}-2-fluorophenoxy)benzamide]: the Ki in assay [1] (setting [4]) came out at 74.5 nM; in assay [2] (setting [6]), 132 nM.

`Cc1nsc(C2CCCN2Cc2ccc(Oc3ccc(C(N)=O)cc3)cc2)n1` (single isomer, unassigned) [enantiomer of Example 41, 4-(4-{[2-(3-methyl-1,2,4-thiadiazol-5-yl)pyrrolidin-1-yl]methyl}phenoxy)benzamide]: the Ki in assay [1] (setting [4]) was above 388 nM; in assay [2] (setting [6]), above 558 nM.

Take `COc1cc(C2CCCN2Cc2ccc(Oc3ccc(C(N)=O)cc3)cc2)n(C)n1` (single isomer, unassigned) [enantiomer of Example 46, 4-(4-{[2-(3-methoxy-1-methyl-1H-pyrazol-5-yl)pyrrolidin-1-yl]methyl}phenoxy)benzamide]: the figures for the Ki in assay [1] (setting [4]) and in assay [2] (setting [6]) were 111 nM and 120 nM, respectively.

On to `Cc1nn(C)cc1C1CCCN1Cc1ccc(Oc2ccc(C(N)=O)cc2)c(F)c1` (single isomer, unassigned; (+)) [Example 2, (+)-4-(4-{[2-(1,3-Dimethyl-1H-pyrazol-4-yl)pyrrolidin-1-yl]methyl}-2-fluorophenoxy)benzamide], for which the Ki stood at 3.95 nM in assay [1] (setting [3]) and 27.8 nM in assay [2] (setting [5]).

On to `COc1nn(C)cc1C1CCCN1Cc1ccc(Oc2ccc(C(N)=O)cc2F)cc1` (single isomer, unassigned; (+)) [Example 9, (+)-3-Fluoro-4-(4-{[2-(3-methoxy-1-methyl-1H-pyrazol-4-yl)pyrrolidin-1-yl]methyl}phenoxy)benzamide], for which the Ki in assay [1] (setting [3]) was 22.5 nM; in assay [2] (setting [5]), above 352 nM.

As to `COc1n[nH]cc1C1CCCN1Cc1ccc(Oc2ccc(C(N)=O)cc2)cc1` (single isomer, unassigned; (+)) [Example 15, (+)-4-(4-{[2-(3-Methoxy-1H-pyrazol-4-yl)pyrrolidin-1-yl]methyl}phenoxy)benzamide], the Ki in assay [1] (setting [3]) is 23.2 nM; in assay [2] (setting [5]), 150 nM.

`Cc1nn(C)cc1C1CCCN1Cc1ccc(Oc2ccc(C(N)=O)c(O)c2)cc1` (single isomer, unassigned; (+)) [Example 17, (+)-4-(4-{[2-(1,3-Dimethyl-1H-pyrazol-4-yl)pyrrolidin-1-yl]methyl}phenoxy)-2-hydroxybenzamide]: the figures for the Ki in assay [1] (setting [3]) and in assay [2] (setting [5]) were 27 nM and 108 nM, respectively.

Regarding `Cc1nn(C)cc1C1CCCN1Cc1ccc(Oc2ccc(C(N)=O)cc2)c(F)c1` (single isomer, unassigned; (-)) [Example 3, (−)-4-(4-{[2-(1,3-Dimethyl-1H-pyrazol-4-yl)pyrrolidin-1-yl]methyl}-2-fluorophenoxy)benzamide], the Ki is 0.461 nM in assay [1] (setting [3]) and 16.9 nM in assay [2] (setting [5]).

As for `COc1n[nH]cc1C1CCCN1Cc1ccc(Oc2ccc(C(N)=O)cc2)cc1` (single isomer, unassigned; (-)) [Example 14, (−)-4-(4-{[2-(3-Methoxy-1H-pyrazol-4-yl)pyrrolidin-1-yl]methyl}phenoxy)benzamide], the results for the Ki in assay [1] (setting [3]) and in assay [2] (setting [5]) were 6.08 nM and 31.3 nM, respectively.

For the compound `Cc1nn(C)cc1C1CCCN1Cc1ccc(Oc2ccc(C(N)=O)c(O)c2)cc1` (single isomer, unassigned; (-)) [Example 18, (−)-4-(4-{[2-(1,3-Dimethyl-1H-pyrazol-4-yl)pyrrolidin-1-yl]methyl}phenoxy)-2-hydroxybenzamide], the inhibition constant (Ki) in assay [1] (setting [3]) worked out at 1.76 nM; in assay [2] (setting [5]), 63.6 nM.
